Test results reported in patent US12629336B2, “Compositions and methods of use thereof for treatment of mastitis” (CureMast, Inc., priority 2020, dated 2026).
Values joined by “and” are separate entries in the source; they are usually repeats but may differ in a detail not shown here. Equal entries are not always repeated. Where two headings read alike, the source gives them in different places.

How the values were obtained:
[1] = paper chromatography: migration/release of NAC from monoolein emulsions; assay type: physicochemical; settings: deionized water as solvent, tetrazolium/ammonia detection
Description: Paper chromatography was utilized to evaluate the release of soluble NAC from the formulations of Examples 1 and 2 using a colorimetric reagent to develop the chromatograms as follows:
Three strips of chromatography paper were marked with pencil to indicate the “origin” and spotted with a small dot of each of the two samples. The third strip was spotted with a drop of aqueous NAC only. Each strip was suspended in a separate jar with deionized water just covering the bottom of the jar. The bottom edge of each paper strip was positioned to be immersed in water, which gradually migrated up the strip. After upward water migration wet approximately 6 to 8 cm of the paper, the “solvent front” was marked with pencil and the strips were allowed to dry completely.
Tetrazolium blue chloride (Sigma no. T4375, lot no. SHBM0991) was dissolved in denatured ethyl alcohol to obtain a 1% solution and transferred to a small spray bottle. The dry chromatography strips were placed in a chemical fume hood, sprayed with the tetrazolium solution, and allowed to dry again. An ammonia chamber was created by coving the bottom of a large glass canister with concentrated ammonium hydroxide and the chromatography paper strips were suspended just above the liquid with the canister covered until a purple color developed, indicating the presence of NAC.

bacteria = settings: in vitro; value in brackets; cited from earlier work
epithelial cells = settings: in vitro, cited from earlier work

| Compound | Rf value of NAC [1] | migration of NAC from the origin [1] | minimum inhibitory concentration (MIC) required to kill bacteria (bacteria) [%] | cytotoxic limit (CTL) above which epithelial cells are killed (epithelial cells) | cytotoxic limit (CTL) above which epithelial cells are killed (epithelial cells; value in brackets) [%] |
| --- | --- | --- | --- | --- | --- |
| CC(=O)N[C@@H](CS)C(=O)O [aqueous NAC, N-acetyl-L-cysteine] | 0.91 and 0.67 | migrated from the origin |  |  |  |
| polyhexamethylene biguanide hydrochloride [PHMB] |  |  | 0.01 | greater than 15 mg per liter | > 0.15 |
